Literature values, collected in patent US6497890B2, “Anti-wrinkle preparation and method of reducing wrinkles in facial skin and neck” (priority 1996, dated 2002).

Legend:
[1] = commonly prescribed NSAIDS
[2] = system: rheumatoid arthritis patients; conditions: for EFFICACY (estimated rate) / TOXICITY (estimated rate): remittive agents in RA

SMILES	Half Life [1] [h]	EFFICACY (estimated rate) [2]	TOXICITY (estimated rate) [2]	onset of action ([2]; RA patients, mostly) [month]
Cc1ccc(C(=O)c2ccc(CC(=O)O)n2C)cc1 [Tolmetin]	1 to 2			
CCN(CCO)CCCC(C)Nc1ccnc2cc(Cl)ccc12 (centres unmarked) [Hydroxychloroquine]		Intermediate	Low	
O=P1(N(CCCl)CCCl)NCCCO1 (centres unmarked) [Cyclophosphamide]		High	High	
COc1ccc2c(c1)c(CC(=O)O)c(C)n2C(=O)c1ccc(Cl)cc1 [Indomethacin]	3 to 11			
CC1=C(CC(=O)O)c2cc(F)ccc2/C1=C\c1ccc([S+](C)[O-])cc1 (centres unmarked) [Sulindac]	16			
CC(=O)OC[C@H]1O[C@@H]([S-])[C@H](OC(C)=O)[C@@H](OC(C)=O)[C@@H]1OC(C)=O.CCP(CC)CC.[Au+] [Auranofin]		Intermediate	Intermediate	
O=C(O)c1cc(/N=N/c2ccc(S(=O)(=O)Nc3ccccn3)cc2)ccc1O [Sulfasalazine]		Intermediate	Intermediate	
CN(Cc1cnc2nc(N)nc(N)c2n1)c1ccc(C(=O)N[C@@H](CCC(=O)O)C(=O)O)cc1 [Methotrexate]		High	Intermediate	≤ 1
Cn1cnc([N+](=O)[O-])c1Sc1ncnc2nc[nH]c12 [Azathioprine]		Intermediate	High	
CC(C(=O)O)c1cccc(Oc2ccccc2)c1 (centres unmarked) [Fenoprofen]	2			
Cc1ccc(Cl)c(Nc2ccccc2C(=O)O)c1Cl [Meclofenamate]	2 to 3			
CN1C(C(=O)Nc2ccccn2)=C(O)c2ccccc2S1(=O)=O [Piroxicam]	30 to 86			
O=C(O)Cc1ccccc1Nc1c(Cl)cccc1Cl [Diclofenac]	1.5			
O=C(O)CCc1nc(-c2ccccc2)c(-c2ccccc2)o1 [Oxaprozin]	40			
CC(C)(S)[C@@H](N)C(=O)O [Penicillamine]		Intermediate	High	
